Laboratory results taken from US12268687B2, “Compounds and uses thereof” (JANSSEN PHARMACEUTICA NV, priority 2020, dated 2025).
Where two headings read alike, the source gives them in different places.

How the values were obtained:
SCD1 = SCD1 (Homo sapiens (Human), UniProt O00767); experiment: Growth inhibition of yeast strain expressing human SCD1 as the sole desaturase; type: cell-based
SCD5 = SCD5 (Homo sapiens (Human), UniProt Q86SK9); experiment: Growth inhibition of yeast strain expressing human SCD5 as the sole desaturase; type: cell-based
[1] = ole1Δ yeast with human SCD1 plasmid, OD600 growth read at 40 h, top concentration 33.3 μM per method
[2] = ole1Δ yeast with human SCD5 plasmid, OD600 growth read at 40 h, top concentration 33.3 μM per method

Chain of SCD5 (Q86SK9 whole entry): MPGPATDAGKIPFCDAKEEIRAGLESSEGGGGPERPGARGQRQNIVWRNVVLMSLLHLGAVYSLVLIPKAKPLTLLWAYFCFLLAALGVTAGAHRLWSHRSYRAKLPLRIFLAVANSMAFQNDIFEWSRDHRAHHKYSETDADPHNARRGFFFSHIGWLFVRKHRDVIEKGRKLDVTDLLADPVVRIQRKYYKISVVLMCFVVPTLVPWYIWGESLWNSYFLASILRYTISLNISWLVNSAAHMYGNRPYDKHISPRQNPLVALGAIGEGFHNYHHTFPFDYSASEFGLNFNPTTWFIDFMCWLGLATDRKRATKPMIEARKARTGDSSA
Chain of SCD1 (O00767 whole entry): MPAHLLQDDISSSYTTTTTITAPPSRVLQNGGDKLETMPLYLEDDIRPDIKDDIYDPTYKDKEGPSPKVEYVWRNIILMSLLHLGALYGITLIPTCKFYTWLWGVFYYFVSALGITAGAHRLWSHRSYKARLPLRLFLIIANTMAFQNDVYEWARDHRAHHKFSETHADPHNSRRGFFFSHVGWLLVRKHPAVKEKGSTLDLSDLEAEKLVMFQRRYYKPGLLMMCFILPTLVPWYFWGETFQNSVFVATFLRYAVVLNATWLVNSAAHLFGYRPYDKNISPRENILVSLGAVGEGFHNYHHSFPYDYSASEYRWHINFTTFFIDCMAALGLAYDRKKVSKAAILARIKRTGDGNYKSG

Molecule | IC50 (SCD1; [1]) | IC50 (SCD5; [2]) | IC50 (SCD1) | IC50 (SCD5)
Cn1nc(NC(=O)C2CCN(Cc3cccc(Cl)c3)CC2)ccc1=O [Compound 136, 1-(3-chlorobenzyl)-N-(1-methyl-6-oxo-1,6-dihydropyridazin-3-yl)piperidine-4-carboxamide] | > 45000 nM | > 45000 nM |  | 
Cn1nc(NC(=O)N2CCC(Cc3cc(F)cc(F)c3)CC2)ccc1=O [Compound 51, 4-(3,5-difluorobenzyl)-N-(1-methyl-6-oxo-1,6-dihydropyridazin-3-yl)piperidine-1-carboxamide] |  |  | 680 nM | 60 nM
Cn1cc(NC(=O)N2CCC(Cc3cc(F)cc(F)c3)CC2)ccc1=O [Compound 9] | 14400 nM | 4220 nM |  | 

Continued by falling IC50 (SCD1; [1]), values first:

IC50 (SCD1; [1]) | IC50 (SCD5; [2]) | Molecule | IC50 (SCD1) | IC50 (SCD5)
910 nM | 740 nM | Cn1nc(NC(=O)N2CCC(Oc3cccc(Cl)c3F)CC2)ccc1=O [Compound 77, 4-(3-chloro-2-fluorophenoxy)-N-(1-methyl-6-oxo-1,6-dihydropyridazin-3-yl)piperidine-1-carboxamide] |  | 
450 nM | 10 nM | 6-(3-(4-(3,5-difluorobenzyl)piperidin-1-yl)-1,2,4-oxadiazol-5-yl)-2-methylpyridazin-3(2H)-one [Compound 115] |  | 
170 nM | 10 nM | Cn1nc(NC(=O)N2CCC(Oc3cccc(F)c3Cl)CC2)ccc1=O [Compound 78, 4-(2-Chloro-3-fluorophenoxy)-N-(1-methyl-6-oxo-1,6-dihydropyridazin-3-yl)piperidine-1-carboxamide] |  | 
